This note sets out measurements from PubChem BioAssay (NCI).

Molecules are shown by their SMILES.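 Each compound was tested at five concentrations against cells in 96-well plates for 48 hours. TGI: total growth inhibition.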

Some test systems named below: DU-145 prostate; HL-60(TB) leukemia; NCI-H522 lung; SR leukemia; UACC-62 melanoma; LOX IMVI melanoma; MDA-MB-435; KM12 colon; SK-MEL-2 melanoma; SK-MEL-28 melanoma.
What all share (test): growth of human tumour cells (NCI), 48 h

As to `CCCCCOC(=O)c1cc2cc(CCl)ccc2oc1=O`, the TGI with DU-145 prostate turned out to be 17.1 µM; in the assay with HL-60(TB) leukemia it was 7.19 µM; in the assay on NCI-H522 lung it was 1.3 µM; in the assay on SR leukemia, 67.5 µM; in the assay on UACC-62 melanoma, 5.91 µM; in the assay on LOX IMVI melanoma, 34.5 µM. Besides, the TGI in the assay with MDA-MB-435 was 14.9 µM; with KM12 colon, 31.2 µM; in the assay with SK-MEL-2 melanoma it was 2.08 µM; in the assay on SK-MEL-28 melanoma, 60.2 µM.
For the compound `O=C(O)C(O)C(O)C(O)C(=O)CO` (stereo not given), the TGI in the assay on DU-145 prostate, with HL-60(TB) leukemia, in the assay with NCI-H522 lung, in the assay with SR leukemia, with UACC-62 melanoma and in the assay with LOX IMVI melanoma was above 100 µM throughout. Moreover, the TGI in the assay with MDA-MB-435, in the assay on KM12 colon, with SK-MEL-2 melanoma and in the assay on SK-MEL-28 melanoma was above 100 µM throughout.
With `Nc1cc(-c2ccc(Cl)cc2)nn1-c1nc2ccccc2nc1-c1ccccc1`, the TGI with DU-145 prostate, with HL-60(TB) leukemia, in the assay with NCI-H522 lung, with SR leukemia, with UACC-62 melanoma and with LOX IMVI melanoma was above 100 µM throughout. Further, the TGI in the assay on MDA-MB-435, in the assay with KM12 colon, in the assay on SK-MEL-2 melanoma and in the assay with SK-MEL-28 melanoma was above 100 µM throughout.
Consider `COc1ccc(C(=O)N(C(=O)N2CCN(c3ccccc3)CC2)S(=O)(=O)c2ccccc2)cc1`, for which the TGI is 72.2 µM with DU-145 prostate; 48.9 µM in the assay with HL-60(TB) leukemia; 33.3 µM in the assay on NCI-H522 lung; 42.8 µM in the assay with SR leukemia; 39.6 µM in the assay on UACC-62 melanoma; 38 µM with LOX IMVI melanoma. The TGI in the assay on MDA-MB-435 was above 100 µM; in the assay with KM12 colon it was above 100 µM; with SK-MEL-2 melanoma it was 35 µM; in the assay with SK-MEL-28 melanoma, above 100 µM.
Consider `COc1cc([C@@H]2c3cc4c(cc3[C@@H](c3c(O)cc(O)c5c3O[C@H](c3ccc(O)c(O)c3)[C@H](OC(=O)c3cc(O)c(O)c(O)c3)C5)[C@H]3COC(=O)[C@H]23)OCO4)cc(OC)c1OC`, for which the TGI in the assay with DU-145 prostate is above 100 µM; in the assay with HL-60(TB) leukemia, 0.729 µM; with NCI-H522 lung, above 100 µM; in the assay with SR leukemia, 8.14 µM; in the assay on UACC-62 melanoma it was above 100 µM; in the assay on LOX IMVI melanoma, above 100 µM. Moreover, the TGI in the assay on MDA-MB-435 is 7.23 µM; in the assay on KM12 colon, above 100 µM; with SK-MEL-2 melanoma, above 100 µM; in the assay with SK-MEL-28 melanoma, above 100 µM.
Regarding `COc1cc2c(cc1C)NC(=O)/C2=C/c1c(Cl)n(-c2ccccc2)c2ccccc12`, the TGI in the assay on DU-145 prostate was above 100 µM; with HL-60(TB) leukemia it was 22 µM; with NCI-H522 lung, 32.2 µM; in the assay on SR leukemia it was 32.9 µM; with UACC-62 melanoma, 73.5 µM; in the assay on LOX IMVI melanoma, 27.8 µM. Moreover, the TGI in the assay with MDA-MB-435 is 45.5 µM; in the assay with KM12 colon, above 100 µM; in the assay with SK-MEL-2 melanoma, 36 µM; in the assay with SK-MEL-28 melanoma, above 100 µM.
